Source: PubChem BioAssay (NCI)
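Cells were grown in 96-well plates and exposed to each compound for 48 hours at five concentrations; endpoints were interpolated linearly between bracketing concentrations, or set to the highest concentration if not reached. GI50 is the concentration that inhibits growth by half. TGI marks complete inhibition of growth.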

Legend:
Assay in all cases: growth of human tumour cells (NCI), 48 h
[1] = test system: KM12 colon
[2] = test system: T-47D breast
[3] = test system: DU-145 prostate
[4] = test system: SW-620 colon
[5] = test system: SNB-75 CNS
[6] = test system: IGROV1 ovarian
[7] = test system: ACHN renal
[8] = test system: NCI-H522 lung
[9] = test system: CAKI-1 renal
[10] = test system: UO-31 renal
[11] = test system: SF-268 CNS
[12] = test system: A549 NSCLC
[13] = test system: PC-3 prostate
[14] = test system: K-562 leukemia
[15] = test system: RXF 393 renal
[16] = test system: HOP-62 NSCLC
[17] = test system: SF-539 CNS
[18] = test system: UACC-257 melanoma
[19] = test system: MDA-MB-231 breast
[20] = test system: SK-MEL-5 melanoma
[21] = test system: NCI-H226 lung
[22] = test system: OVCAR-5 ovarian
[23] = test system: MCF7 breast
[24] = test system: U251 CNS
[25] = test system: HCT-116 colon
[26] = test system: LOX IMVI melanoma
[27] = test system: SK-MEL-28 melanoma
[28] = test system: SN12C renal
[29] = test system: CCRF-CEM leukemia
[30] = test system: UACC-62 melanoma
[31] = test system: MDA-MB-435
[32] = test system: HL-60(TB) leukemia
[33] = test system: NCI/ADR-RES ovarian
[34] = test system: OVCAR-3 ovarian
[35] = test system: M14 melanoma
[36] = test system: HOP-92 NSCLC
[37] = test system: OVCAR-8 ovarian
[38] = test system: MALME-3M melanoma
[39] = test system: SNB-19 CNS
[40] = test system: BT-549 breast
[41] = test system: NCI-H23 lung
[42] = test system: NCI-H460 lung
[43] = test system: MOLT-4 leukemia
[44] = test system: SR leukemia
[45] = test system: COLO 205 colon
[46] = test system: HS 578T breast
[47] = test system: EKVX NSCLC
[48] = test system: SK-MEL-2 melanoma
[49] = test system: HCC-2998 colon
[50] = test system: HCT-15 colon
[51] = test system: RPMI-8226 leukemia
[52] = test system: SF-295 CNS
[53] = test system: A498 renal
[54] = test system: TK-10 renal
[55] = test system: HT29 colon

SMILES: COc1cc(N(CCCl)CCCl)ccc1/C=N\NC(=O)c1cccnc1
- GI50 [1]: 33.6 µM
- TGI [1]: > 100 µM
- GI50 [2]: 11.4 µM
- TGI [2]: > 100 µM
- GI50 [3]: 24.6 µM
- TGI [3]: > 100 µM
- GI50 [4]: 30.4 µM
- TGI [4]: > 100 µM
- GI50 [5]: 37.1 µM
- TGI [5]: > 100 µM
- GI50 [6]: 36 µM
- TGI [6]: > 100 µM
- GI50 [7]: 17 µM
- TGI [7]: > 100 µM
- GI50 [8]: 21.8 µM
- TGI [8]: 65.8 µM
- GI50 [9]: 9.25 µM
- TGI [9]: 59.2 µM
- GI50 [10]: 23.8 µM
- TGI [10]: 79.1 µM
- GI50 [11]: 36.6 µM
- TGI [11]: > 100 µM
- GI50 [12]: 12.1 µM
- TGI [12]: > 100 µM
- GI50 [13]: 21.4 µM
- TGI [13]: > 100 µM
- GI50 [14]: 36.6 µM
- TGI [14]: > 100 µM
- GI50 [15]: 24.1 µM
- TGI [15]: 78.5 µM
- GI50 [16]: 34.9 µM
- TGI [16]: > 100 µM
- GI50 [17]: 27.3 µM
- TGI [17]: > 100 µM
- GI50 [18]: 15.3 µM
- TGI [18]: 63.3 µM
- GI50 [19]: 33.8 µM
- TGI [19]: > 100 µM
- GI50 [20]: 16.4 µM
- TGI [20]: 36 µM
- GI50 [21]: 1.72 µM
- TGI [21]: 9.47 µM
- GI50 [22]: 8.34 µM
- TGI [22]: 60.1 µM
- GI50 [23]: 23.8 µM
- TGI [23]: > 100 µM
- GI50 [24]: 23.8 µM
- TGI [24]: > 100 µM
- GI50 [25]: 26 µM
- TGI [25]: > 100 µM
- GI50 [26]: 32.2 µM
- TGI [26]: > 100 µM
- GI50 [27]: 48.4 µM
- TGI [27]: > 100 µM
- GI50 [28]: 30 µM
- TGI [28]: > 100 µM
- GI50 [29]: 23 µM
- TGI [29]: > 100 µM
- GI50 [30]: 10.5 µM
- TGI [30]: 29.5 µM
- GI50 [31]: 30.3 µM
- TGI [31]: > 100 µM
- GI50 [32]: 11.4 µM
- TGI [32]: 40.4 µM
- GI50 [33]: 24.9 µM
- TGI [33]: > 100 µM
- GI50 [34]: 21 µM
- TGI [34]: 50.4 µM
- GI50 [35]: 37.5 µM
- TGI [35]: > 100 µM
- GI50 [36]: 14.1 µM
- TGI [36]: 45.4 µM
- GI50 [37]: 26.5 µM
- TGI [37]: > 100 µM
- GI50 [38]: 38.3 µM
- TGI [38]: > 100 µM
- GI50 [39]: 52.8 µM
- TGI [39]: > 100 µM
- GI50 [40]: 20.9 µM
- TGI [40]: 89.5 µM
- GI50 [41]: 26.7 µM
- TGI [41]: > 100 µM
- GI50 [42]: 0.403 µM
- TGI [42]: 25.4 µM
- GI50 [43]: 22.3 µM
- TGI [43]: 67.4 µM
- GI50 [44]: 13.7 µM
- TGI [44]: > 100 µM
- GI50 [45]: 13.5 µM
- TGI [45]: > 100 µM
- GI50 [46]: 32.6 µM
- TGI [46]: > 100 µM
- GI50 [47]: 31.2 µM
- TGI [47]: 87.5 µM
- GI50 [48]: 28 µM
- TGI [48]: 62 µM
- GI50 [49]: 41.2 µM
- TGI [49]: > 100 µM
- GI50 [50]: 27.2 µM
- TGI [50]: > 100 µM
- GI50 [51]: 30.9 µM
- TGI [51]: > 100 µM
- GI50 [52]: 4.31 µM
- TGI [52]: 35.7 µM
- GI50 [53]: 0.523 µM
- TGI [53]: 1.98 µM
- GI50 [54]: 16.9 µM
- TGI [54]: 53.5 µM
- GI50 [55]: 34.8 µM
- TGI [55]: > 100 µM
